The record followed here is patent publication US20060147456A1, “Induction of apoptosis in toll-like receptor expressing tumor cells” (priority 2004, published 2006).

The test system of assay [1] is PARP. The experiment in a line: Western Blot for cleavage of PARP in Cama-1 cells. The settings on record: Poly IC treatment. It counts as cell-based, human. As for the experimental part: Cama-1 cells were lysed in 1% Nonidet-P40-containing buffer. 20 μg total protein was loaded per lane on SDS-Polyacrylamide gels (Invitrogen). Western Blots (WB) were performed with standard techniques using the antibodies described above. Anti IRAK-4 monoclonal antibodies were generated in the laboratory according to the protocol described in Fossiez et al., “T cell interleukin-17 induces stromal cells to produce proinflammatory and hematopoietic cytokines”, J. Exp. Med., vol. 183(6), pp. 2593-2603 (1996).
We next addressed the role of caspases in apoptosis. Cama-1 cells were pre-incubated with 25 μM of the general caspase inhibitor z-VAD-fmk or DMSO for 1 hour before culture for 24 hours with or without 5 μg/ml Poly IC or 25 ng/ml TNF-α (used as a positive control). Apoptosis was measured by annexin V staining and expressed as a percentage of apoptotic cell in the culture.
In another experiment, lysates from cells obtained above were analyzed by Western Blot for cleavage of PARP, Caspase 3 and Caspase 8.
A general note: Immunoblotting shows a protein as a band on a membrane.

Assay [2] relates to SKBr3 cells. As to the kind of experiment: Apoptosis analysis of SKBr3 cells. The format is cell-based. The conditions noted are these: for percentage of SKBr3 cells induced to apoptosis by Poly IC: summary statement. As for the experimental part: We tried to further investigate whether any synergy exists between TLR3 ligands and type I IFN. The primary breast carcinoma cells SKBr3 were plated in 6 well plates at 3×10^5 cells per well. After overnight adherence, siRNA transfections were performed for 5 hours in OptiMEM medium (Life technologies) containing 3μg/mL lipofectamine 2000 (Invivogen) and 100 nM siRNA. Cells were transfected with either MOCK (water), TLR3 siRNA or PKR siRNA. Cells were then washed and cultured for 72 hours in complete medium before 24 hour treatment with 50 μg/ml Poly IC and apoptosis analysis.
In another experiment, we tried to determine whether IFN and Poly IC acted synergistically to induce apoptosis. SKBr3 cells were untreated or pre-treated with either 10 U/ml or 100 U/ml of a low dose mixture of IFN-α or IFN-β. Poly IC was administered in the following doses: 0, 0.5, 5 and 50 μg/ml for 48 hours.

For “polyinosinic-polycytidylic acid [Poly IC]”, the “cleavage of PARP” value in assay [1] was “occurred”. Also, the “percentage of apoptotic cells” value turned out to be 15% in assay [2] (SKBr3, 0.5 μg/ml Poly IC 48 h, no IFN pre-treatment); 45% in assay [2] (SKBr3, 0.5 μg/ml Poly IC 48 h, pre-treated IFN-α/β 10 U/ml); 55% in assay [2] (SKBr3, 0.5 μg/ml Poly IC 48 h, pre-treated IFN-α/β 100 U/ml); 20% in assay [2] (SKBr3, 5 μg/ml Poly IC 48 h, no IFN pre-treatment); 55% in assay [2] (SKBr3, 5 μg/ml Poly IC 48 h, pre-treated IFN-α/β 10 U/ml); 60% in assay [2] (SKBr3, 5 μg/ml Poly IC 48 h, pre-treated IFN-α/β 100 U/ml). Also, the “percentage of apoptotic cells” value stood at 20% in assay [2] (SKBr3, 50 μg/ml Poly IC 48 h, no IFN pre-treatment); 55% in assay [2] (SKBr3, 50 μg/ml Poly IC 48 h, pre-treated IFN-α/β 10 U/ml); 60% in assay [2] (SKBr3, 50 μg/ml Poly IC 48 h, pre-treated IFN-α/β 100 U/ml); 22% in assay [2] (SKBr3 MOCK group, 24 h, 50 μg/ml Poly IC, untreated 10%); 22% in assay [2] (SKBr3 PKR siRNA group, 24 h, 50 μg/ml Poly IC, untreated 12%); 13% in assay [2] (SKBr3 TLR3 siRNA group, 24 h, 50 μg/ml Poly IC, untreated 8%). In assay [2] (SKBr3, type I IFN pre-treatment), the “Poly IC concentration at which cells become sensitive to apoptosis, IFN pre-treated versus non-pretreated cells” value is “one hundred fold lower”. The results for the “percentage of SKBr3 cells induced to apoptosis by Poly IC” value in assay [2] (after type I IFN pre-treatment) and in assay [2] (without type I IFN pre-treatment) were 66% and 22%, respectively.
